From EPA's ToxRefDB 2

Tests used:
rat [1] = settings: Multigenerational reproductive toxicity study, sprague dawley, Oral, Feed, dose end: 2 generation
rat [2] = settings: Combined chronic toxicity/carcinogenicity, sprague dawley, Oral, Feed, dose end: 24 month, group: systemic
dog = settings: Chronic toxicity; beagle; Oral; Feed; dose end: 52 week; group: systemic; systemic / hematology / erythrocyte (rbc) count differential / erythrocyte (rbc) + systemic / hematology / platelet / platelet + systemic / …
rat [3] = settings: Prenatal developmental toxicity study, sprague dawley, Oral, Gavage/Intubation, dose end: 15 GD
rabbit [4] = settings: Prenatal developmental toxicity study, new zealand white, Oral, Gavage/Intubation, dose end: 19 GD
rabbit [5] = settings: Prenatal developmental toxicity study, new zealand white, Oral, Gavage/Intubation, dose end: 18 GD
[6] = group: offspring, systemic / in life observation / body weight / offspring (pup) weight
[7] = group: parental, systemic / in life observation / body weight / body weight + systemic / in life observation / body weight / body weight gain + systemic / in…
[8] = systemic / clinical chemistry / calcium / calcium + systemic / clinical chemistry / protein / protein + systemic / in life observation / …
[9] = systemic / organ weight / liver / relative to body weight
[10] = group: developmental, developmental / developmental malformation / bone / incomplete ossification
[11] = group: maternal, systemic / in life observation / clinical signs / alopecia + systemic / in life observation / clinical signs / blood around eyes and nose + …
[12] = group: developmental, developmental / developmental malformation / bone / fused
[13] = group: maternal, systemic / in life observation / body weight / body weight gain
[14] = group: developmental, developmental / developmental malformation / bone / delayed ossification + developmental / developmental malformation / bone / fused + …
[15] = group: maternal, reproductive / offspring survival early / live fetuses / live fetuses + systemic / organ weight / uterus / nos

`C#CCOS(=O)OC1CCCCC1Oc1ccc(C(C)(C)C)cc1` (stereo not given) [Propargite] showed an LEL (rat [1]; [6]) of 40 mg/kg/day, an LOAEL (rat [1]; [6]) of 40 mg/kg/day and an NEL (rat [1]; [6]) of 20 mg/kg/day. For the same molecule, the NOAEL (rat [1]; [6]) was 20 mg/kg/day, the LEL (rat [1]; [7]) was 20 mg/kg/day and the LOAEL (rat [1]; [7]) was 20 mg/kg/day. It also gave an NEL (rat [1]; [7]) of 4 mg/kg/day, an NOAEL (rat [1]; [7]) of 4 mg/kg/day and an LOAEL (rat [2]; [8]) of 19.2 mg/kg/day. The NOAEL (rat [2]; [8]) was 3.83 mg/kg/day, the LEL (rat [2]; [9]) was 2.95 mg/kg/day and the NEL (rat [2]; [9]) was < 2.95 mg/kg/day. It also gave an LEL (dog) of 38 mg/kg/day, an LOAEL (dog) of 38 mg/kg/day and an NEL (dog) of 5 mg/kg/day. It also gave an NOAEL (dog) of 5 mg/kg/day, an LOAEL (rat [3]; group: developmental, developmental / developmental malformation / bone / absent + developmental / developmental malformation / bone / small) of 25 mg/kg/day and an LEL (rat [3]; [10]) of 6 mg/kg/day. For the same molecule, the NEL (rat [3]; [10]) was < 6 mg/kg/day, the NOAEL (rat [3]; group: developmental, developmental / developmental malformation / bone / incomplete ossification + developmental / developmental malformation / bone / absent + …) was 6 mg/kg/day and the LEL (rat [3]; [11]) was 105 mg/kg/day. The LOAEL (rat [3]; [11]) was > 450 mg/kg/day, the NEL (rat [3]; [11]) was 25 mg/kg/day and the NOAEL (rat [3]; [11]) was ≥ 450 mg/kg/day. The LEL (rabbit [4]; [12]) was 10 mg/kg/day, the LOAEL (rabbit [4]; [12]) was 10 mg/kg/day and the NEL (rabbit [4]; [12]) was 8 mg/kg/day. For the same molecule, the NOAEL (rabbit [4]; [12]) was 8 mg/kg/day, the LEL (rabbit [4]; [13]) was 8 mg/kg/day and the LOAEL (rabbit [4]; [13]) was 8 mg/kg/day. For the same molecule, the NEL (rabbit [4]; [13]) was 6 mg/kg/day, the NOAEL (rabbit [4]; [13]) was 6 mg/kg/day and the LEL (rabbit [5]; group: developmental, developmental / developmental malformation / bone / delayed ossification) was 6 mg/kg/day. For the same molecule, the LOAEL (rabbit [5]; [14]) was > 18 mg/kg/day, the NEL (rabbit [5]; [14]) was 2 mg/kg/day and the NOAEL (rabbit [5]; [14]) was ≥ 18 mg/kg/day. For the same molecule, the LEL (rabbit [5]; [15]) was 2 mg/kg/day, the NEL (rabbit [5]; [15]) was < 2 mg/kg/day and the LOAEL (rabbit [5]; group: maternal, systemic / in life observation / body weight / body weight gain + reproductive / offspring survival early / live fetuses / live fetuses) was 6 mg/kg/day. For the same molecule, the NOAEL (rabbit [5]; group: maternal, systemic / in life observation / body weight / body weight gain + reproductive / reproductive performance / implantations / implantations + …) was 2 mg/kg/day.
